Measurements reported in PMC3914206.

How the values were obtained:
Assay type in all cases: binding
Settings in all cases: Compound Concentration 10 µM
[1] = target: T1, panel of 442 kinases (Homo sapiens, UniProt O15075)
T1 construct: purchased KINOMEscan
From the text: (§1) We assessed the selectivity of members of this scaffold using the KINOMEscan methodology across a near comprehensive panel of 442 kinases [[18,27]].

[2] = target: T2, panel of 442 kinases (Homo sapiens, UniProt P09769)
T2 construct: purchased KINOMEscan
T2 sequence (P09769 whole entry): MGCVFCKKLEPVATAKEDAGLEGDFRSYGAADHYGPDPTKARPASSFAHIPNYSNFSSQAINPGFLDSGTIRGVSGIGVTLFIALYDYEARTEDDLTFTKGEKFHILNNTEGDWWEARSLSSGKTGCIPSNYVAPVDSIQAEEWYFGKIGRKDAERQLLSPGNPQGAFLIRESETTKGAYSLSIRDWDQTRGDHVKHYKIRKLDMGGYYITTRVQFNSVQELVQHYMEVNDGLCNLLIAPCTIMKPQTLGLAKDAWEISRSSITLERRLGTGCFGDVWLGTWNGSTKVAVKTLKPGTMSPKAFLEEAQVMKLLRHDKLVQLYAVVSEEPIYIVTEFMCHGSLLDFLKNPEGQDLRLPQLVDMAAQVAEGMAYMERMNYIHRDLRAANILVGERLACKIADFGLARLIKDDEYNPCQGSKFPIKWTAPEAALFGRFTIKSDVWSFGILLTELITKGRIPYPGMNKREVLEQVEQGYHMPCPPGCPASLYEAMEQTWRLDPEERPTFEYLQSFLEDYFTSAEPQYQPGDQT
From the text: as §1

[3] = target: T3, panel of 442 kinases (Homo sapiens, UniProt P21709)
T3 construct: purchased KINOMEscan
T3 sequence (P21709 26-976): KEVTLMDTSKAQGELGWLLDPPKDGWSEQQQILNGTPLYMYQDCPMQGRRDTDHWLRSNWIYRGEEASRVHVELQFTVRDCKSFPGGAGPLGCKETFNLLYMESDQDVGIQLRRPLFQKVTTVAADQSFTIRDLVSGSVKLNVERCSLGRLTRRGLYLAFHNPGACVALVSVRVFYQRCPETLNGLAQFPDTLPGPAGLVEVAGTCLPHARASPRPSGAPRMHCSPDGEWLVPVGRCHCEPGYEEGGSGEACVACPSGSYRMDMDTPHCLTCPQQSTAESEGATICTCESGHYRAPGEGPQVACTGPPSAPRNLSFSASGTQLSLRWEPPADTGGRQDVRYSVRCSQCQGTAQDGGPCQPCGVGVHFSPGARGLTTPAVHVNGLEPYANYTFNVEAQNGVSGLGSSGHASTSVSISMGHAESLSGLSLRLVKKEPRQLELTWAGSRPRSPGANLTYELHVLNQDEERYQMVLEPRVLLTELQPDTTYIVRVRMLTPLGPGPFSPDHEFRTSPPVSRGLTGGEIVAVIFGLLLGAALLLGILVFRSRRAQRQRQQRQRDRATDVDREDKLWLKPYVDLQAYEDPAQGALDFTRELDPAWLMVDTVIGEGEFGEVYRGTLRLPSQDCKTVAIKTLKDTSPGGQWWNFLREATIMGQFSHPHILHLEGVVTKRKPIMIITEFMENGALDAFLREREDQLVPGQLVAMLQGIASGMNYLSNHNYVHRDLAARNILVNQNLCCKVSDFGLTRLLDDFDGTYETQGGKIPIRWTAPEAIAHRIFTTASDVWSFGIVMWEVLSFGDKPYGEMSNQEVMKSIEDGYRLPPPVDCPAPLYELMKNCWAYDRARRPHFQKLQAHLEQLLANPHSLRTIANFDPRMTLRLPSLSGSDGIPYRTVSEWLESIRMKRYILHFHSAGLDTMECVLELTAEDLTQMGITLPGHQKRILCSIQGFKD
From the text: as §1

T1 sequence (O15075 whole entry): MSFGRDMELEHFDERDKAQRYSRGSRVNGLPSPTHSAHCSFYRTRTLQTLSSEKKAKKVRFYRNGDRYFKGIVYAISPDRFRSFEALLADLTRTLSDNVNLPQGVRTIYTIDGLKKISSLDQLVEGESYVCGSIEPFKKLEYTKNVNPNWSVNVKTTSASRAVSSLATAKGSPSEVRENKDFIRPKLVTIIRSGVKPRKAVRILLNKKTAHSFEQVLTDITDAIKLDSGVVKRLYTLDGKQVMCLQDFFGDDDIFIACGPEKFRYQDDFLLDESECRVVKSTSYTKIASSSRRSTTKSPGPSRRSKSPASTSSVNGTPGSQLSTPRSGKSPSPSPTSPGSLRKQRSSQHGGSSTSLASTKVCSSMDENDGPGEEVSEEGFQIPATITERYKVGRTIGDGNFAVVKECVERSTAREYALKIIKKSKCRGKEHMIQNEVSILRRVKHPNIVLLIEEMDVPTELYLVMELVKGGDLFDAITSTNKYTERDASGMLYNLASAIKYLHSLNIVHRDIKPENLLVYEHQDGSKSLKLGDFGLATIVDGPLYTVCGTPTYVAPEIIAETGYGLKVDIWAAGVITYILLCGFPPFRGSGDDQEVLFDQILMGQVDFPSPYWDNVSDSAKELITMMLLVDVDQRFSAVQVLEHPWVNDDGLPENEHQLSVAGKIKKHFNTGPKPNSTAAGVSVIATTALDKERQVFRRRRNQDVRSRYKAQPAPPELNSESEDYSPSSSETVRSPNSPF

| Structure (SMILES) | KINOMEscan: DCAMKL1 [1] | KINOMEscan: FGR [2] | KINOMEscan: EPHA1 [3] |
| --- | --- | --- | --- |
| COc1cc(C(=O)N2CCC(N3CCN(C)CC3)CC2)ccc1Nc1ncc2c(n1)N(C)c1ccccc1C(=O)N2C [15 (LRRK2-IN-1)] | 4.2 | 84 | 100 |
| COc1cc(C(=O)N2CCC(N3CCN(C)CC3)CC2)ccc1Nc1ncc2c(n1)N1CCc3cccc(c31)C(=O)N2C [Compound 24] | 6.4 | 79 |  |
| COc1cc(C(=O)N2CCC(N3CCN(C)CC3)CC2)ccc1Nc1ncc2c(n1)N(C1CCCC1)c1ccccc1C(=O)N2C [Compound 25, 11-cyclopentyl-2-((2-methoxy-4-(4-(4-methylpiperazin-1-yl)piperidine-1-carbonyl)phenyl)amino)-5-methyl-5H-benzo[e]pyrimido[5,4-b][1,4]diazepin-6(11H)-one] | 8.4 | 98 | 100 |
| CCOc1cc(C(=O)N2CCC(N3CCN(C)CC3)CC2)ccc1Nc1ncc2c(n1)N(C1CCCC1)c1ccccc1C(=O)N2C [Compound 26] |  | 99 | 98 |
